ChEMBL document CHEMBL5303573, “Mapping human microbiome drug metabolism by gut bacteria and their genes” (Nature, 2019)

Columns and labels:
[1] = The drug is tested on Clostridium ramosum strain: DSM1402 for biotransformation. The drug concentrations were measured before and after a 12-h incubation by liquid-chromatography-coupled mass spectrometry (LC–MS); settings: thomasclavelia ramosa, 2 µM
[2] = victivallis vadensis, 12 h, 2 µM
Description: The drug is tested on Victivallis vadensis strain: ATCC BAA-548 for biotransformation. The drug concentrations were measured before and after a 12-h incubation by liquid-chromatography-coupled mass spectrometry (LC–MS)

[3] = The drug is tested on Bifidobacterium ruminantium strain: fecal isolate for biotransformation. The drug concentrations were measured before and after a 12-h incubation by liquid-chromatography-coupled mass spectrometry (LC–MS); settings: 2 µM
[4] = The drug is tested on Clostridium symbiosum strain: ATCC14940 for biotransformation. The drug concentrations were measured before and after a 12-h incubation by liquid-chromatography-coupled mass spectrometry (LC–MS); settings: 2 µM
[5] = The drug is tested on Ruminococcus lactaris strain: ATCC29176 for biotransformation. The drug concentrations were measured before and after a 12-h incubation by liquid-chromatography-coupled mass spectrometry (LC–MS); settings: 2 µM
[6] = The drug is tested on Dorea formicigenerans strain: ATCC27755 for biotransformation. The drug concentrations were measured before and after a 12-h incubation by liquid-chromatography-coupled mass spectrometry (LC–MS); settings: 2 µM
[7] = The drug is tested on Bacteroides cellulosilyticus strain: DSM14838 for biotransformation. The drug concentrations were measured before and after a 12-h incubation by liquid-chromatography-coupled mass spectrometry (LC–MS); settings: 2 µM
[8] = The drug is tested on Anaerococcus hydrogenalis strain: DSM7454 for biotransformation. The drug concentrations were measured before and after a 12-h incubation by liquid-chromatography-coupled mass spectrometry (LC–MS); settings: 2 µM
[9] = anaerostipes sp., 12 h, 2 µM
Description: The drug is tested on Anaerostipes sp. strain: fecal isolate for biotransformation. The drug concentrations were measured before and after a 12-h incubation by liquid-chromatography-coupled mass spectrometry (LC–MS)

[10] = The drug is tested on Blautia luti strain: DSM14534 for biotransformation. The drug concentrations were measured before and after a 12-h incubation by liquid-chromatography-coupled mass spectrometry (LC–MS); type: ADME; design: dose 2 uM, timepoint 0 vs 12 hours; settings: 2 µM
[11] = The drug is tested on Edwardsiella tarda strain: ATCC23685 for biotransformation. The drug concentrations were measured before and after a 12-h incubation by liquid-chromatography-coupled mass spectrometry (LC–MS); settings: 2 µM
[12] = The drug is tested on Bacteroides xylanisolvens strain: DSM18836 for biotransformation. The drug concentrations were measured before and after a 12-h incubation by liquid-chromatography-coupled mass spectrometry (LC–MS); settings: 2 µM
[13] = bacteroides fragilis, 12 h, 2 µM
Description: The drug is tested on Bacteroides fragilis strain: NCTC 9343 for biotransformation. The drug concentrations were measured before and after a 12-h incubation by liquid-chromatography-coupled mass spectrometry (LC–MS)

[14] = The drug is tested on Bacteroides sp. WH2 strain: WH2 for biotransformation. The drug concentrations were measured before and after a 12-h incubation by liquid-chromatography-coupled mass spectrometry (LC–MS); settings: bacteroides sp. wh2, 12 h, 2 µM
[15] = bacteroides eggerthii, 12 h, 2 µM
Description: The drug is tested on Bacteroides eggerthii strain: DSM20697 for biotransformation. The drug concentrations were measured before and after a 12-h incubation by liquid-chromatography-coupled mass spectrometry (LC–MS)

[16] = The drug is tested on Providencia stuartii strain: ATCC25827 for biotransformation. The drug concentrations were measured before and after a 12-h incubation by liquid-chromatography-coupled mass spectrometry (LC–MS); settings: 2 µM
[17] = bifidobacterium adolescentis, 12 h, 2 µM
Description: The drug is tested on Bifidobacterium adolescentis strain: ATCC 15703 for biotransformation. The drug concentrations were measured before and after a 12-h incubation by liquid-chromatography-coupled mass spectrometry (LC–MS)

[18] = The drug is tested on Subdoligranulum variabile strain: DSM15176 for biotransformation. The drug concentrations were measured before and after a 12-h incubation by liquid-chromatography-coupled mass spectrometry (LC–MS); settings: 2 µM
[19] = segatella copri, 12 h, 2 µM
Description: The drug is tested on Prevotella copri strain: DSM18205 for biotransformation. The drug concentrations were measured before and after a 12-h incubation by liquid-chromatography-coupled mass spectrometry (LC–MS)

[20] = The drug is tested on Bacteroides fragilis strain: ATCC43859 for biotransformation. The drug concentrations were measured before and after a 12-h incubation by liquid-chromatography-coupled mass spectrometry (LC–MS); settings: 2 µM
[21] = The drug is tested on Clostridium scindens strain: ATCC35704 for biotransformation. The drug concentrations were measured before and after a 12-h incubation by liquid-chromatography-coupled mass spectrometry (LC–MS); settings: 2 µM
[22] = bacteroides intestinalis, 12 h, 2 µM
Description: The drug is tested on Bacteroides intestinalis strain: DSM17393 for biotransformation. The drug concentrations were measured before and after a 12-h incubation by liquid-chromatography-coupled mass spectrometry (LC–MS)

[23] = The drug is tested on Bacteroides coprophilus strain: DSM18228 for biotransformation. The drug concentrations were measured before and after a 12-h incubation by liquid-chromatography-coupled mass spectrometry (LC–MS); settings: 2 µM
[24] = The drug is tested on Bacteroides uniformis strain: ATCC8492 for biotransformation. The drug concentrations were measured before and after a 12-h incubation by liquid-chromatography-coupled mass spectrometry (LC–MS); settings: 2 µM
[25] = akkermansia muciniphila, 12 h, 2 µM
Description: The drug is tested on Akkermansia muciniphila strain: ATCC BAA-835 for biotransformation. The drug concentrations were measured before and after a 12-h incubation by liquid-chromatography-coupled mass spectrometry (LC–MS)

[26] = The drug is tested on Enterococcus faecalis strain: V583 for biotransformation. The drug concentrations were measured before and after a 12-h incubation by liquid-chromatography-coupled mass spectrometry (LC–MS); settings: 2 µM
[27] = The drug is tested on Eubacterium rectale strain: ATCC33656 for biotransformation. The drug concentrations were measured before and after a 12-h incubation by liquid-chromatography-coupled mass spectrometry (LC–MS); settings: agathobacter rectalis, 2 µM
[28] = The drug is tested on Eubacterium ventriosum strain: ATCC27560 for biotransformation. The drug concentrations were measured before and after a 12-h incubation by liquid-chromatography-coupled mass spectrometry (LC–MS); type: ADME; design: dose 2 uM, timepoint 0 vs 12 hours; settings: 2 µM
[29] = The drug is tested on Anaerotruncus colihominis strain: DSM17241 for biotransformation. The drug concentrations were measured before and after a 12-h incubation by liquid-chromatography-coupled mass spectrometry (LC–MS); settings: 2 µM
[30] = The drug is tested on Collinsella aerofaciens strain: ATCC25986 for biotransformation. The drug concentrations were measured before and after a 12-h incubation by liquid-chromatography-coupled mass spectrometry (LC–MS); settings: 2 µM
[31] = parabacteroides johnsonii, 12 h, 2 µM
Description: The drug is tested on Parabacteroides johnsonii strain: DSM18315 for biotransformation. The drug concentrations were measured before and after a 12-h incubation by liquid-chromatography-coupled mass spectrometry (LC–MS)

[32] = The drug is tested on Ruminococcus torques strain: ATCC27756 for biotransformation. The drug concentrations were measured before and after a 12-h incubation by liquid-chromatography-coupled mass spectrometry (LC–MS); type: ADME; design: dose 2 uM, timepoint 0 vs 12 hours; settings: 2 µM
[33] = The drug is tested on Coprococcus comes strain: ATCC27758 for biotransformation. The drug concentrations were measured before and after a 12-h incubation by liquid-chromatography-coupled mass spectrometry (LC–MS); type: ADME; design: dose 2 uM, timepoint 0 vs 12 hours; settings: 2 µM
[34] = The drug is tested on Bacteroides vulgatus strain: ATCC8482 for biotransformation. The drug concentrations were measured before and after a 12-h incubation by liquid-chromatography-coupled mass spectrometry (LC–MS); settings: phocaeicola vulgatus, 2 µM
[35] = The drug is tested on Eubacterium hallii strain: DSM3353 for biotransformation. The drug concentrations were measured before and after a 12-h incubation by liquid-chromatography-coupled mass spectrometry (LC–MS); settings: anaerobutyricum hallii, 2 µM
[36] = The drug is tested on Bacteroides pectinophilus strain: ATCC43243 for biotransformation. The drug concentrations were measured before and after a 12-h incubation by liquid-chromatography-coupled mass spectrometry (LC–MS); settings: 2 µM
[37] = The drug is tested on Clostridium sporogenes strain: ATCC15579 for biotransformation. The drug concentrations were measured before and after a 12-h incubation by liquid-chromatography-coupled mass spectrometry (LC–MS); settings: 2 µM
[38] = The drug is tested on Collinsella intestinalis strain: DSM13280 for biotransformation. The drug concentrations were measured before and after a 12-h incubation by liquid-chromatography-coupled mass spectrometry (LC–MS); settings: 2 µM
[39] = The drug is tested on Ruminococcus gnavus strain: ATCC29149 for biotransformation. The drug concentrations were measured before and after a 12-h incubation by liquid-chromatography-coupled mass spectrometry (LC–MS); settings: mediterraneibacter gnavus, 2 µM
[40] = The drug is tested on Escherichia coli strain: BW25113 for biotransformation. The drug concentrations were measured before and after a 12-h incubation by liquid-chromatography-coupled mass spectrometry (LC–MS); settings: 2 µM
[41] = The drug is tested on Bacteroides caccae strain: ATCC43185 for biotransformation. The drug concentrations were measured before and after a 12-h incubation by liquid-chromatography-coupled mass spectrometry (LC–MS); settings: 2 µM
[42] = The drug is tested on Bifidobacterium longum subsp. Infantis strain: CCUG52486 for biotransformation. The drug concentrations were measured before and after a 12-h incubation by liquid-chromatography-coupled mass spectrometry (LC–MS); settings: 2 µM
[43] = The drug is tested on Bacteroides finegoldii strain: DSM17565 for biotransformation. The drug concentrations were measured before and after a 12-h incubation by liquid-chromatography-coupled mass spectrometry (LC–MS); settings: 2 µM
[44] = bacteroides fragilis, 12 h, 2 µM; remark: listed apart in the source
Description: The drug is tested on Bacteroides fragilis strain: 3397 (T10) for biotransformation. The drug concentrations were measured before and after a 12-h incubation by liquid-chromatography-coupled mass spectrometry (LC–MS)

[45] = enterocloster bolteae, 12 h, 2 µM
Description: The drug is tested on Clostridium bolteae strain: ATCCBAA-613 for biotransformation. The drug concentrations were measured before and after a 12-h incubation by liquid-chromatography-coupled mass spectrometry (LC–MS)

[46] = The drug is tested on Clostridium asparagiforme strain: DSM15981 for biotransformation. The drug concentrations were measured before and after a 12-h incubation by liquid-chromatography-coupled mass spectrometry (LC–MS); type: ADME; design: dose 2 uM, timepoint 0 vs 12 hours; settings: enterocloster asparagiformis, 2 µM
[47] = bacteroides thetaiotaomicron, 12 h, 2 µM
Description: The drug is tested on Bacteroides thetaiotaomicron strain: VPI-5482 for biotransformation. The drug concentrations were measured before and after a 12-h incubation by liquid-chromatography-coupled mass spectrometry (LC–MS)

[48] = bacteroides thetaiotaomicron, 12 h, 2 µM; remark: listed apart in the source
Description: The drug is tested on Bacteroides thetaiotaomicron strain: 3731 for biotransformation. The drug concentrations were measured before and after a 12-h incubation by liquid-chromatography-coupled mass spectrometry (LC–MS)

[49] = The drug is tested on Odoribacter splanchnicus strain: fecal isolate for biotransformation. The drug concentrations were measured before and after a 12-h incubation by liquid-chromatography-coupled mass spectrometry (LC–MS); settings: 2 µM
[50] = bacteroides stercoris, 12 h, 2 µM
Description: The drug is tested on Bacteroides stercoris strain: ATCC43183 for biotransformation. The drug concentrations were measured before and after a 12-h incubation by liquid-chromatography-coupled mass spectrometry (LC–MS)

[51] = limosilactobacillus reuteri cf48-3a, 12 h, 2 µM
Description: The drug is tested on Lactobacillus reuteri CF48-3A strain: BEI HM-102 for biotransformation. The drug concentrations were measured before and after a 12-h incubation by liquid-chromatography-coupled mass spectrometry (LC–MS)

[52] = The drug is tested on Eggerthella lenta strain: ATCC25559 for biotransformation. The drug concentrations were measured before and after a 12-h incubation by liquid-chromatography-coupled mass spectrometry (LC–MS); settings: 2 µM
[53] = The drug is tested on Bacteroides dorei strain: DSM17855 for biotransformation. The drug concentrations were measured before and after a 12-h incubation by liquid-chromatography-coupled mass spectrometry (LC–MS); settings: phocaeicola dorei, 2 µM
[54] = parabacteroides distasonis, 12 h, 2 µM
Description: The drug is tested on Parabacteroides distasonis strain: ATCC8503 for biotransformation. The drug concentrations were measured before and after a 12-h incubation by liquid-chromatography-coupled mass spectrometry (LC–MS)

| Bacterial Biotransformation [1] | Bacterial Biotransformation [4] | Bacterial Biotransformation [5] | Bacterial Biotransformation [9] | Bacterial Biotransformation [10] | Bacterial Biotransformation [13] | Bacterial Biotransformation [14] | Bacterial Biotransformation [18] | Bacterial Biotransformation [19] | Bacterial Biotransformation [21] | Bacterial Biotransformation [22] | Bacterial Biotransformation [23] | Bacterial Biotransformation [24] | Bacterial Biotransformation [28] | Bacterial Biotransformation [29] | Bacterial Biotransformation [31] | Bacterial Biotransformation [32] | Bacterial Biotransformation [33] | Bacterial Biotransformation [35] | Bacterial Biotransformation [36] | SMILES | also measured |
| --- | --- | --- | --- | --- | --- | --- | --- | --- | --- | --- | --- | --- | --- | --- | --- | --- | --- | --- | --- | --- | --- |
| Compound NOT metabolized | Compound NOT metabolized | Compound NOT metabolized | Compound NOT metabolized | Compound NOT metabolized | Compound NOT metabolized | Compound NOT metabolized | Compound NOT metabolized | Compound NOT metabolized | Compound NOT metabolized | Compound NOT metabolized | Compound NOT metabolized | Compound metabolized | Compound NOT metabolized | Compound NOT metabolized | Compound NOT metabolized | Compound NOT metabolized | Compound NOT metabolized | Compound NOT metabolized | Compound NOT metabolized | CCOC(=O)[C@H](CCc1ccccc1)N[C@@H](C)C(=O)N1[C@H](C(=O)O)C[C@@H]2CCC[C@@H]21 | Bacterial Biotransformation [2]: Compound NOT metabolized; Bacterial Biotransformation [3]: Compound NOT metabolized; Bacterial Biotransformation [6]: Compound NOT metabolized; Bacterial Biotransformation [7]: Compound metabolized; Bacterial Biotransformation [8]: Compound NOT metabolized; Bacterial Biotransformation [11]: Compound NOT metabolized; Bacterial Biotransformation [12]: Compound metabolized; Bacterial Biotransformation [15]: Compound NOT metabolized; Bacterial Biotransformation [16]: Compound NOT metabolized; Bacterial Biotransformation [17]: Compound NOT metabolized; Bacterial Biotransformation [20]: Compound metabolized; Bacterial Biotransformation [25]: Compound NOT metabolized; Bacterial Biotransformation [26]: Compound NOT metabolized; Bacterial Biotransformation [27]: Compound NOT metabolized; Bacterial Biotransformation [30]: Compound NOT metabolized; Bacterial Biotransformation [34]: Compound metabolized; Bacterial Biotransformation [37]: Compound NOT metabolized; Bacterial Biotransformation [38]: Compound NOT metabolized; Bacterial Biotransformation [39]: Compound NOT metabolized |
| Compound NOT metabolized | Compound NOT metabolized | Compound NOT metabolized | Compound NOT metabolized | Compound NOT metabolized | Compound metabolized | Compound NOT metabolized | Compound NOT metabolized | Compound metabolized | Compound NOT metabolized | Compound metabolized | Compound metabolized | Compound metabolized | Compound NOT metabolized | Compound NOT metabolized | Compound metabolized | Compound NOT metabolized | Compound NOT metabolized | Compound NOT metabolized | Compound NOT metabolized | CC#CCn1c(N2CCC[C@@H](N)C2)nc2c1c(=O)n(Cc1nc(C)c3ccccc3n1)c(=O)n2C [LINAGLIPTIN] | Bacterial Biotransformation [40]: Compound NOT metabolized; Bacterial Biotransformation [41]: Compound metabolized; Bacterial Biotransformation [42]: Compound NOT metabolized; Bacterial Biotransformation [43]: Compound metabolized; Bacterial Biotransformation [44]: Compound metabolized; Bacterial Biotransformation [45]: Compound NOT metabolized; Bacterial Biotransformation [46]: Compound NOT metabolized; Bacterial Biotransformation [47]: Compound metabolized; Bacterial Biotransformation [48]: Compound metabolized; Bacterial Biotransformation [49]: Compound metabolized; Bacterial Biotransformation [50]: Compound metabolized; Bacterial Biotransformation [51]: Compound NOT metabolized; Bacterial Biotransformation [52]: Compound NOT metabolized; Bacterial Biotransformation [38]: Compound NOT metabolized; Bacterial Biotransformation [53]: Compound metabolized; Bacterial Biotransformation [39]: Compound NOT metabolized; Bacterial Biotransformation [54]: Compound metabolized |
